# According to patent US20150037399A1, “NOVEL USE OF PIPOXOLAN AND ITS PHARMACEUTICAL COMPOSITION” (China Medical University, priority 2013, published 2015):
# Key:
# [1] = tested on: neurological deficits in ischemic rats; test: Evaluation of neurological deficits after ischemia-reperfusion; format: in vivo, Sprague-Dawley (SD) rats; conditions: 24 hr after reperfusion; for neurological deficits (score 0-5): mean±SE
# Description: Focal ischemia was induced by occlusion of both common carotid arteries (CCA) and the right middle cerebral artery (MCA). Eighteen rats were randomly assigned to 3 treatment groups, six rats for each group. Group 1 rats were treated with saline and groups 2 and 3 treated with pipoxolan (10 mg/kg and 30 mg/kg, respectively). Rats were fasted overnight with free access to water. Pipoxolan (10, 30 mg/kg) was orally administered 1 hr prior to transient focal cerebral ischemia-reperfusion. Animals then were anesthetized with zoletil® (25 mg/kg i.p.), and the skull was exposed, and a small burr hole was produced over the MCA. Beneath the right MCA, proximal to the major bifurcation of the right MCA, distal to the lenticulostriate arteries, and rostral to the rhinal fissure, a 10-0 nylon monofilament was placed. The artery then was lifted and the nylon filament rotated clockwise. Both CCA were then occluded using a microvascular clip. After 90 minutes of occlusion, reperfusion was established by removing the microvascular clips from the CCA, rotating the nylon monofilament counterclockwise and removing it from beneath the MCA. After 24 hr, all rats were alive and neurobehavioral deficits evaluation and infarct assessment were performed Twenty four hours following reperfusion, neurological function of rats was assessed. The degree of neurological deficits were divided 0-5 (higher score is for more severe neurological deficits) as follows: 0=no neurological deficits, 1=failure to extend left forepaw fully, 2=circling to the left, 3=falling to left, 4=no spontaneous walking with a depressed level of consciousness, and 5=death. Neurological evaluation was done by an observer who was blind to the treatment conditions of the animals. After completion of the neurobehavioral evaluation, rats were deeply anesthetized by an intraperitoneal injection of zoletil® (50 mg/kg) followed by intracardiac perfusion with 200 ml of freezing PBS and animals were then decapitated. The brain was removed and sliced in 2-mm sections using a rodent brain matrix slicer. The sections were stained with 2% 2,3,5-triphenyltetrazoliumchloride (TTC) for 10 min at 37° C. and fixed in 10% formalin. The image of each section was digitized and the infarct area was determined morphometrically using Image-Pro Plus 6.0 (Media Cybernetics, Md., USA).
# TUNEL positive cells = test: TUNEL assay in cortex of ischemic rats; format: in vivo, Sprague-Dawley (SD) rats; conditions: rat cortex, 24 hr after focal ischemia
# Description: (§1) Nine rats were randomly assigned into 3 treatment groups, three rats for each group. Group 1 rats were treated with saline and groups 2 and 3 treated with pipoxolan (10 mg/kg and 30 mg/kg, respectively). Focal ischemia was induced by occlusion of both CCA and the right MCA as previously described. Twenty four hours after focal ischemia, rats were deeply anesthetized by intraperitoneal injection of 50 mg/kg of zoletil® followed by intracardiac perfusion with 200 ml of 0.9% saline, followed by 4% paraformaldehyde in 0.1 M PBS and animals were decapitated. The percentage of positive TUNEL staining cells within areas of the cortex was estimated.
# [2] = tested on: cleaved caspase-3 positive cells; test: Immunohistochemical staining of cleaved caspase-3 in rat brain slices; format: in vivo, Sprague-Dawley (SD) rats; conditions: rat cortex
# Description: as §1, with “estimated. Rat brain slices were incubated with anti-caspase-3 antibodies (GTX73093, GeneTex Inc., USA) overnight and immunohistochemical labeled using a NovoLink Polymer Detection System Kit (Leica Microsystems Inc., Newcastle Upon Tyne, UK). The percentage of positive caspase-3 staining cells within the cortex was estimated based on the average number of cells in a defined area.” for “estimated.”
# [3] = tested on: PDGF-BB-induced migration of A7r5 cells (VSMCs); test: In vitro wound healing assay; format: cell-based; conditions: PDGF-BB 30 ng/ml, 5, 10 and 15 μM, 24, 48 and 72 hr, dose-dependent
# Description: The VSMCs cell line A7r5 was purchased from Bioresource Collection and Research Center (Hsinchu, Taiwan). A7r5 cells were plated onto 6-well plates in DMEM, supplemented with 10% FBS, 100 units/ml penicillin, 100 μg/ml streptomycin and 2 mM L-glutamine and grown at 37° C. under a humidified 5% CO2 and 95% air at one atmosphere. The effects of pipoxolan on VSMCs migration were evaluated by a wound-healing assay. Platelet-derived growth factor (PDGF) form VMSCs can cause cell migration, which results in intimal hyperplasia. A7r5 cells were plated in 6-well plates (2×10^5 cells per well) and damage was performed with a single scratch wound using a sterile micropipette tip. Cells were then incubated with or without PDGF-BB (30 ng/ml) and pipoxolan (5, 10, 15 μM) in serum-reduced DMEM medium (containing 0.5% fetal bovine serum). The extent of wound closure was determined using a phase contrast microscope at 24, 48, and 72 hr following wounding. Cell migration was expressed by the migration distance of drug-treated cells (mm) divided by the migration distance of untreated cells (mm).
# Ras = test: Western blot of Ras in PDGF-BB-stimulated VSMCs; format: cell-based
# Description: (§2) The role of matrix metalloproteinase-2/9 (MMP-2/9) and the Ras/MEK/ERK signaling pathways were used to evaluate the effect of pipoxolan on VSMCs migration. The protein expression levels were determined by Western blot analysis. Each vertical bars represented mean±S.E. **p<0.01 and ***p<0.001 compared with control group (n=6 in each group).
# p-ERK = test: Western blot of p-ERK in PDGF-BB-stimulated VSMCs; format: cell-based
# Description: as §2
# MMP-2 = test: Western blot of MMP-2 in PDGF-BB-stimulated VSMCs; format: cell-based
# Description: as §2
smiles,measurement,setting,value
"Cl.O=C1OC(CCN2CCCCC2)OC1(c1ccccc1)c1ccccc1 (centres unmarked) [pipoxolan, 5,5-diphenyl-2-(2-piperidin-1-ylethyl)-1,3-dioxolan-4-one hydrochloride]",reduction of neurological deficits,[1]; 10 mg/kg p.o.,31.25%
same,neurological deficits (score 0-5),[1]; 10 mg/kg p.o.,2.20±0.20
same,reduction of neurological deficits,[1]; 30 mg/kg p.o.,46.88%
same,neurological deficits (score 0-5),[1]; 30 mg/kg p.o.,1.7±0.21
same,percent reduction of TUNEL positive cells,TUNEL positive cells; 10 mg/kg,31.25%
same,percent reduction of TUNEL positive cells,TUNEL positive cells; 30 mg/kg,46.88%
same,reduction of cleaved caspase 3 positive cells,[2]; 10 mg/kg,37.18%
same,reduction of cleaved caspase 3 positive cells,[2]; 30 mg/kg,63.44%
same,effect on PDGF-BB-induced cell migration (wound closure),[3],markedly inhibited
same,reduction of Ras protein level,Ras; 5 μM,21%
same,reduction of Ras protein level,Ras; 10 μM,24.75%
same,reduction of Ras protein level,Ras; 15 μM,24%
same,reduction of p-ERK protein level,p-ERK; 5 μM,50.33%
same,reduction of p-ERK protein level,p-ERK; 10 μM,51.67%
same,reduction of p-ERK protein level,p-ERK; 15 μM,75%
same,reduction of MMP-2 protein level,MMP-2; 10 μM,12.4%
same,reduction of MMP-2 protein level,MMP-2; 15 μM,24.4%
